Assays:
[1] = test system: luciferase (Luc) mRNA expression; assay: Luc expression (total flux, bioluminescence) after intravenous administration to mice; format: in vivo; settings: i.v., 0.5 mg/kg, 3, 6 and 24 hours, versus other compositions
Experimental: In order to monitor how effectively various nanoparticle compositions deliver therapeutic and/or prophylactics to targeted cells, different nanoparticle compositions including a particular therapeutic and/or prophylactic (for example, a modified or naturally occurring RNA such as an mRNA) are prepared and administered to rodent populations. Mice are intravenously, intramuscularly, intraarterially, or intratumorally administered a single dose including a nanoparticle composition with a formulation such as those provided in Example 3. In some instances, mice may be made to inhale doses. Dose sizes may range from 0.001 mg/kg to 10 mg/kg, where 10 mg/kg describes a dose including 10 mg of a therapeutic and/or prophylactic in a nanoparticle composition for each 1 kg of body mass of the mouse. A control composition including PBS may also be employed.
Upon administration of nanoparticle compositions to mice, dose delivery profiles, dose responses, and toxicity of particular formulations and doses thereof can be measured by enzyme-linked immunosorbent assays (ELISA), bioluminescent imaging, or other methods. For nanoparticle compositions including mRNA, time courses of protein expression can also be evaluated. Samples collected from the rodents for evaluation may include blood, sera, and tissue (for example, muscle tissue from the site of an intramuscular injection and internal tissue); sample collection may involve sacrifice of the animals.
The efficacy of the nanoparticle compositions presented in Table 1A was evaluated with a bioluminescence study. Formulations were administered intravenously to mice (n=6) at a dosage of 0.5 mg/kg (mpk) and bioluminescence measured at 3, 6, and 24 hour time points. The standard MC3 formulation and, in some instances, a control (e.g., a PBS control) were evaluated for comparison. […] In general, flux decreased as time progressed to less than 10% of the initial flux.
The total flux (measured by area under the curve, AUC) induced by administration of a formulation including a given lipid relative to that induced by administration of a formulation including MC3 was also measured for several lipids.

[2] = Particle size, polydispersity index (and zeta potential) of nanoparticle compositions, Zetasizer Nano ZS; format: physicochemical; settings: Table 1A; lipid:DSPC:cholesterol:PEG-DMG 50:10:38.5:1.5 mol %, mRNA
Description: Nanoparticle compositions may be characterized by a variety of methods. For example, microscopy (e.g., transmission electron microscopy or scanning electron microscopy) may be used to examine the morphology and size distribution of a nanoparticle composition. Dynamic light scattering or potentiometry (e.g., potentiometric titrations) may be used to measure zeta potentials. Dynamic light scattering may also be utilized to determine particle sizes. Instruments such as the Zetasizer Nano ZS (Malvern Instruments Ltd, Malvern, Worcestershire, UK) may also be used to measure multiple characteristics of a nanoparticle composition, such as particle size, polydispersity index, and zeta potential.
A Zetasizer Nano ZS (Malvern Instruments Ltd, Malvern, Worcestershire, UK) can be used to determine the particle size, the polydispersity index (PDI) and the zeta potential of the nanoparticle compositions in 1×PBS in determining particle size and 15 mM PBS in determining zeta potential.

[3] = Encapsulation efficiency of RNA, QUANT-IT RIBOGREEN RNA assay; format: physicochemical; settings: Table 1A formulations
Description: The efficiency of encapsulation of a therapeutic and/or prophylactic describes the amount of therapeutic and/or prophylactic that is encapsulated or otherwise associated with a nanoparticle composition after preparation, relative to the initial amount provided. The encapsulation efficiency is desirably high (e.g., close to 100%). The encapsulation efficiency may be measured, for example, by comparing the amount of therapeutic and/or prophylactic in a solution containing the nanoparticle composition before and after breaking up the nanoparticle composition with one or more organic solvents or detergents. Fluorescence may be used to measure the amount of free therapeutic and/or prophylactic (e.g., RNA) in a solution. For the nanoparticle compositions described herein, the encapsulation efficiency of a therapeutic and/or prophylactic may be at least 50%, for example 50%, 55%, 60%, 65%, 70%, 75%, 80%, 85%, 90%, 91%, 92%, 93%, 94%, 95%, 96%, 97%, 98%, 99%, or 100%. In some embodiments, the encapsulation efficiency may be at least 80%. In certain embodiments, the encapsulation efficiency may be at least 90%.
For nanoparticle compositions including an RNA, a QUANT-IT™ RIBOGREEN® RNA assay (Invitrogen Corporation Carlsbad, Calif.) can be used to evaluate the encapsulation of an RNA by the nanoparticle composition. The samples are diluted to a concentration of approximately 5 μg/mL in a TE buffer solution (10 mM Tris-HCl, 1 mM EDTA, pH 7.5). 50 μL of the diluted samples are transferred to a polystyrene 96 well plate and either 50 μL of TE buffer or 50 μL of a 2% Triton X-100 solution is added to the wells. The plate is incubated at a temperature of 37° C. for 15 minutes. The RIBOGREEN® reagent is diluted 1:100 in TE buffer, and 100 μL of this solution is added to each well. The fluorescence intensity can be measured using a fluorescence plate reader (Wallac Victor 1420 Multilablel Counter; Perkin Elmer, Waltham, Mass.) at an excitation wavelength of, for example, about 480 nm and an emission wavelength of, for example, about 520 nm. The fluorescence values of the reagent blank are subtracted from that of each of the samples and the percentage of free RNA is determined by dividing the fluorescence intensity of the intact sample (without addition of Triton X-100) by the fluorescence value of the disrupted sample (caused by the addition of Triton X-100).

SMILES	flux at all time points measured [1]	Size (nm) [2]	EE (%) [3]
CCCCCCCCCOC(=O)CCCCCCCN(CCCCCCCC(=O)OC(CCCCCCCC)CCCCCCCC)CCOC(C)=O [Compound 9, Heptadecan-9-yl 8-((2-acetoxyethyl)(8-(nonyloxy)-8-oxooctyl)amino) octanoate]	significantly lower flux	–	–
CCCCCCCCCOC(=O)CCCCCCCN(CCCCCCCC(=O)OC(CCCCCCCC)CCCCCCCC)CCOCCN(C)C [Compound 17, Heptadecan-9-yl 8-((2-(2-(dimethylamino)ethoxy)ethyl)(8-(nonyloxy)-8-oxooctyl)amino)octanoate]	significantly lower flux	–	–
CCCCCCCCCOC(=O)CCCCCCCN(CCO)CCCCCCCC(=O)OC(CCCC)CCCC [Compound 57, nonan-5-yl 8-((2-hydroxyethyl)(8-(nonyloxy)-8-oxooctyl)amino) octanoate]	significantly lower flux	–	–
CCCCCCCCCOC(=O)CCCCCCCN(CCO)CCCCCCCC(=O)OC(CCC)CCC [Compound 58, heptan-4-yl 8-((2-hydroxyethyl)(8-(nonyloxy)-8-oxooctyl)amino) octanoate]	significantly lower flux	–	–
CCCCCCCCCOC(=O)CCCCCCCN(CCO)CCCCCCCC(=O)OC(CC)CC [Compound 59, nonyl 8-((2-hydroxyethyl)(8-oxo-8-(pentan-3-yloxy)octyl)amino) octanoate]	significantly lower flux	–	–
CCCCCCCCCOC(=O)CCCCCCCN(CCCCCCCC(=O)OC(CCCCCCCC)CCCCCCCC)CCC(=O)O [Compound 125, 3-((8-(Heptadecan-9-yloxy)-8-oxooctyl)(8-(nonyloxy)-8-oxooctyl)amino)propanoic acid]	significantly lower flux	–	–
CCCCCCCCCCCCN(CCO)CCCCCCCCCCCC(=O)OC [Compound 137, Methyl 12-(dodecyl(2-hydroxyethyl)amino)dodecanoate]	significantly lower flux	184.4 nm	85.7%
CCCCCCCC/C=C\COC(=O)CCCCCN(CCO)CCCCCC(=O)OC/C=C\CCCCCCCC [Compound 140, Di((Z)-undec-2-en-1-yl) 6,6′-((2-hydroxyethyl)azanediyl)dihexanoate]	significantly lower flux	–	–
CCCCCCCCCCCOC(=O)CCCCCN(CCO)CCCCCC(=O)OCCCCCCCCCCC [Compound 141, Diundecyl 6,6′-((2-hydroxyethyl)azanediyl)dihexanoate]	significantly lower flux	–	–
CCCCCCCCCOC(=O)CCCCCCCN(CCO)CCCCCCCC(=O)OC(C)(C)C [Compound 158, tert-Butyl 8-((2-hydroxyethyl)(8-(nonyloxy)-8-oxooctyl)amino)octanoate]	significantly lower flux	–	–

Source: patent publication US9868692B2, “Compounds and compositions for intracellular delivery of therapeutic agents” (MODERNATX, Inc., priority 2015, dated 2018)
